Test [1] deals with LZ-pMTL83155. Briefly: Sensitivity of C. autoethanogenum transformants to ganciclovir (plating on PETC agar), empty-vector strain. It counts as cell-based, Clostridium autoethanogenum. The procedure: The pMTL83155, pMTL83155-Hsv-tk and pMTL85155-PheS plasmids were introduced into C. autoethanogenum DSM23693 (a derivate of DSM10061) as described in WO2012053905. Outgrowth was performed in PETC broth and spread on PETC-agar media supplemented with 15 μg/ml thiamphenicol (Sigma) and 10 μg/ml trimethoprim (Sigma). Colonies were observed after 3 days of incubation at 37° C. in pressurized gas jars with 20 psi of a gas mix of 48% […] 2% H2, 20% CO2, 30% N2. Streaks of single colonies were made on PETC-agar media containing 15 μg/mlthiamphenicol.
(§1) The sensitivity of LZ-pMTL83155 and LZ-pMTL83155-hsv-tk to ganciclovir was tested by plating them on PETC agar media containing 20 nM ganciclovir only and PETC agar media containing 20 nM ganciclovir and 15 μg/ml thiamphenicol. […] The presence of Hvs-tk gene confers toxicity to ganciclovir.

Test [2] has as its system LZ-pMTL83155-hsv-tk. It counts as cell-based, Clostridium autoethanogenum. The procedure: The pMTL83155, pMTL83155-Hsv-tk and pMTL85155-PheS plasmids were introduced into C. autoethanogenum DSM23693 (a derivate of DSM10061) as described in WO2012053905. Outgrowth was performed in PETC broth and spread on PETC-agar media supplemented with 15 μg/ml thiamphenicol (Sigma) and 10 μg/ml trimethoprim (Sigma). […] Streaks of single colonies were made on PETC-agar media containing 15 μg/mlthiamphenicol.
as §1

The subject of test [3] is E. coli Top10 harbouring the empty vector pMTL85151. Briefly: Toxicity testing of DL-4-chlorophenylalanine, E. coli with empty vector. To be noted: plates and liquid media, 24 hours. The format is cell-based. The procedure: (§2) E. coli Top10 and C. autoethanogenum DSM23693 harbouring the empty vector pMTL85151 were grown initially in the presence of DL-4-chlorophenylanine on plates and in liquid media to ascertain if the counter-selection marker has any effect on growth of the organisms.

Test [4] has as its system C. autoethanogenum DSM23693 harbouring pMTL85151-pheS*. It counts as cell-based, Clostridium autoethanogenum. To be noted: summary statement. The procedure:
(§3) The three independent transformants of C. atoethanogenum DSM23693 harbouring pMTL85151-pheS*, as well as C. autoethanogenum DSM23693 harbouring pMTL85151, were grown in liquid PECT media supplemented with thiamphenicol and grown at 37° C. under CO only conditions. After 24 hours, 100 ul of each of the three independent, as well as the control pMTL85151, were plated into PETC-MES agar supplemented with either thiamphenicol alone, or thiamphenicol and DL-4-chlorophenylalanine and incubated for 48 hours.

Test [5] deals with C. autoethanogenum DSM23693 harbouring pMTL85151. Briefly: Toxicity/sensitivity testing of DL-4-chlorophenylalanine, C. autoethanogenum with empty vector. The format is cell-based, Clostridium autoethanogenum. The procedure:
as §2, §3

Test [6] has as its system E. coli TOP10 harbouring pMTL85151-pheS*. Kind of test: Testing pheS* in E. coli (plating on LB with chloramphenicol and DL-4-chlorophenylalanine). The format is cell-based. The procedure:
To test the ability of the counter selection marker to work in E. coli, the plasmid pMTL85151-pheS* was transformed into TOP10 and grown under chloramphenicol selection only. Once the culture had reached an OD of 0.5, representing an exponential growth phase, 100 ul was plated onto LB plates containing chloramphenicol and DL-4-chlorophenylalanine as well as chloramphenicol alone as a control, in triplicate, […]

With `Nc1nc(O)c2ncn(COC(CO)CO)c2n1` [Ganciclovir, ganciclovir], the “Colonies on ganciclovir plates” value in test [1] (20 nM ganciclovir, with or without 15 μg/ml thiamphenicol) is on record as “observed only with LZ-pMTL83155 transformants”. Besides, in test [1] (Ganciclovir 20 nM, CSM Hsv-tk), the “Sensitivity to prodrug: growth on plate, LZ-pMTL83155” value is reported as “Lawn”. Besides, the “Sensitivity to prodrug: growth on plate, LZ-pMTL83155-hsv-tk” value in test [2] (Ganciclovir 20 nM, CSM Hsv-tk, PETC agar) was 0-5 ^. The “Counterselection in combination with HSV-Tk” value in test [2] (summary statement) is “effective for counterselection in C. autoethanogenum”.
`NC(Cc1ccc(Cl)cc1)C(=O)O` (racemic) [DL-4-chlorophenylalanine]: the Effect on growth entry in test [3] was “did not impede growth of either organism in liquid media or on plates”; in test [5] (plates and liquid media, 48 hours) it was “did not impede growth of either organism in liquid media or on plates”. For the same compound, the “Counterselection in combination with PheS*” value in test [4] is given as “effective for counterselection in C. autoethanogenum”. For the same compound, the “Sensitivity to prodrug: growth on plate, column LZ-pMTL83155” value in test [5] (DL-4-Chlorophenlanine 0.20%, CSM PheS, control strain without CSM) is listed as “Lawn”. Further, the “Growth on double selection plates (thiamphenicol and DL-4-chlorophenylalanine)” value in test [5] (PETC-MES agar, 48 hours) is given as “the same results as the thiamphenicol only plate”. For the same compound, the “Growth on plates with chloramphenicol and DL-4-chlorophenylalanine” value is “a light shading of small colonies” in test [6] (24 hours at 37° C., compared with chloramphenicol alone) and “outgrown to the same level as the chloramphenicol alone plates” in test [6] (after 36 hours).

The values above are taken from US20150072395A1, “RECOMBINANT MICROORGANISMS AND METHODS OF USE THEREOF” (priority 2013, published 2015).
